# Measurements taken from patent US8901042B2, “High throughput screen for measuring membrane effects” (Cornell University, priority 2009, dated 2014).
# Read-outs that look alike come from different tables or passages of the source.
# Key:
# [1] = tested on: gramicidin A (gA) channels in DC22:1PC lipid bilayer vesicles; assay: gramicidin-based stopped-flow fluorescence quench assay (Tl+ influx into ANTS-filled, gA-doped LUVs); format: biochemical, Bacillus brevis; conditions: for rate of quencher influx (rate of stretched exponential): 260 nM gA, mean±SD, n>10, control 36±6; for Flourescence: concentration at which the molecules double/half the rate of the fluorescence quenching: fitted stretched exponential, rate at 2 ms, DC22:1PC LUVs
# Procedure: 24 hours before fluorescence measurements, ANTS-filled liposomes were mixed 1:20 in S_Na_Buffer. For the portion of liposomes that are to be doped with gramicidin, the desired amount of gramicidins was added at this time. […] Gramicidin diluted in DMSO was used, but the added DMSO was kept to an absolute minimum (<0.1% of volume) as DMSO of >0.5% affects bilayer properties. The solution was stored at 12-13° C. in the dark.
# The modifier in question was diluted in DMSO. The same amount of DMSO was added to all samples, including control.
# For each condition: • 1. Use 1.5 mL of diluted ANTS-liposomes for each condition (compound, concentration). • 2. Add compound at the desired concentration and incubate for 10 min at 25° C. (keep in dark), or DMSO for controls. • 3. Record fluorescence, x8 repeats, with S_Na_Buffer (the first four should be removed due to mixing). • 4. Record fluorescence, x12 repeats, with S_Tl_Quencher (the first four should also be removed due to mixing).
# Generate fluorescent liposomes. […] 1,2-Dierucoyl-sn-Glycero-3-Phosphocholine lipids, from Avanti Polar Lipids (Alabaster, Ala.), were bought in a lipid/chloroform solution and used without further purification. For each batch of vesicles, the lipid/chloroform solution was dried under nitrogen and then further dried in a dessicator under vacuum overnight to fully remove the chloroform. The dried lipid film was rehydrated in 100 mM NaNO3, 25 mM ANTS, 10 mM HEPES at pH 7.0 at room temperature over night, volume was adjusted to give a 10 mM lipid concentration. The suspension was then sonicated in a low power sonicator for 1 min, subjected to 5-6 freeze thaw cycles and extruded 21 times, at room temperature, using Avanti mini-extruder, Avanti Polar Lipids (Alabaster, Ala.), and a 0.1 μm Polycarbonate Membrane filter. External ANTS was removed by filtering though a PD-10 Desalting column, GE Healthcare (Piscataway, N.J.). Prepared ANTS-LUV stock was stored at 12-13° C. in the dark for a maximum of seven days. Before the fluorescence experiments ANTS-LUV stock was diluted 1:20 with 140 mM NaNO3, 10 mM HEPES, pH 7.0 buffer. For the portion of vesicles to be doped with gA the desired amount of gramicidin from Bacillus aneurinolyticus, Sigma Chemical Co. (St. Louis, Mo.), diluted in dimethylsulfoxide (DMSO) was added and incubated for 24 hours at 12-13° C. in the dark.
# The final DMSO concentrations were kept consistent for all samples and under 0.5% with the exception of when DMSO was tested, then listed amounts where used and no DMSO was added to controls.
# The fluorescence was measured using a SX.20 Stopped-Flow Spectrometer (Applied Photophysics, Leatherhead, UK), with a 150-W Xenon lamp, a two sample rapid mixing unit with machine dead time˜1.2 ms and a thermostatting water bath set to 25° C. The samples were excited at X=352 nm and fluorescence was recorded though λ=455 nm high pass filter with Pro-Data control software from Applied Photophysics, sampling 5000 points a second. For each sample at least 10 repeated mixing trials were measured, from two or more vesicle preparations. Each repeat was separately analyzed using MATLAB v7.4, The MathWorks, Inc (Natick, Mass.). The time course of fluorescence quenching was normalized to the average fluorescence without quencher, for that particular sample, and the first 2-100 ms of the time course was fitted with a stretched exponential. The initial influx rate is quantified as the rate of the stretched exponential at 2 ms.
# [2] = molecular target: Shaker potassium channel (Drosophila melanogaster, UniProt P08510); conditions: cited from earlier work
# Chain of Shaker potassium channel (P08510 whole entry): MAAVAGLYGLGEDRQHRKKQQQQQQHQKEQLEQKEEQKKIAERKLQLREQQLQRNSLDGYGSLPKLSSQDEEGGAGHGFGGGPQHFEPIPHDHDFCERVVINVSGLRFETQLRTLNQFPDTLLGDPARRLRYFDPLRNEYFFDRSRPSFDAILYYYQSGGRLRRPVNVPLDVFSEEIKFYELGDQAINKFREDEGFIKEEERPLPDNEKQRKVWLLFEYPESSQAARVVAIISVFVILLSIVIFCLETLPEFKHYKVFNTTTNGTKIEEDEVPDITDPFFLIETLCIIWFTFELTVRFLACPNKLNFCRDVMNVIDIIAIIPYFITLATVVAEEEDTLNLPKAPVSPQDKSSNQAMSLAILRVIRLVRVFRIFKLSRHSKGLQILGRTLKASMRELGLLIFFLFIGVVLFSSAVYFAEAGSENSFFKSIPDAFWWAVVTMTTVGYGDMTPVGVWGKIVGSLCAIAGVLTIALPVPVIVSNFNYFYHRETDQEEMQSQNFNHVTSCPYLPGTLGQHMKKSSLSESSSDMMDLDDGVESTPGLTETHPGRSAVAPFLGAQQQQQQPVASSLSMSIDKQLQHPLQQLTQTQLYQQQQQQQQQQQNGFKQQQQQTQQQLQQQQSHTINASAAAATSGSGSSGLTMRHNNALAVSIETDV
# [3] = tested on: gA channel in DC18:1PC/n-decane bilayers; conditions: cited from earlier work; for Single channel: concentration at which the molecule double/half gA channel lifetime: standard bilayer-punch electrophysiological methods
Compound,Flourescence: concentration at which the molecules double/half the rate of the fluorescence quenching [1],Single channel: concentration at which the molecule double/half gA channel lifetime [3],other results
NCCc1c(SSc2[nH]c3cc(Br)ccc3c2CCN)[nH]c2cc(Br)ccc12 [BrMT],,,"effect on lipid bilayer properties (gA channel activity, stopped-flow) ([1]; stopped-flow experiments): altered lipid bilayer properties; Shaker potassium channel activation [2]: slows"
COc1cc(CNC(=O)CCCC/C=C/C(C)C)ccc1O [Capsaicin],21,25 µM,"rate of quencher influx (rate of stretched exponential) ([1]; 10 μM capsaicin): 69±6; rate of quencher influx (rate of stretched exponential) ([1]; 30 μM capsaicin): 85±8; rate of quencher influx (rate of stretched exponential) ([1]; 90 μM capsaicin): 247±27; rate of fluorescence quenching (Tl+ influx) in the presence of gramicidin ([1]; 10, 30, 90 μM, concentration dependent): increased"
Oc1cc2c(cc1O)CN(C(=S)NCCc1ccc(Cl)cc1)CCC2 [Capsazepine],16,4 µM,
C[S+](C)[O-] [Dimethyl sulfoxide],"340,000",,"amount that affects bilayer properties ([1]; % of volume): > 0.5%; Single channel: concentration at which the molecule double/half gA channel lifetime ([3]; in µM): >410,000"
[Gd+3] [Gd^3+],<1000,> 30 µM,
O=c1c(-c2ccc(O)cc2)coc2cc(O)cc(O)c12 [Genistein],22,25 µM,
O=c1c(-c2ccc(O)cc2)coc2cc(O[C@@H]3O[C@H](CO)[C@@H](O)[C@H](O)[C@H]3O)cc(O)c12 [Genistin],910,>>30,
OC(c1cc(C(F)(F)F)nc2c(C(F)(F)F)cccc12)C1CCCCN1 (centres unmarked) [Mefloquine],37,6 µM,gA channel frequency ([3]; single-channel electrophysiology): decreases
CCCCCCCCO[C@@H]1O[C@H](CO)[C@@H](O)[C@H](O)[C@H]1O [β-octylglucoside],325,270 µM,
(−)-epigallocatechin gallate,12,0.25 µM,effect on gA channel conductance ([3]; single-channel): causes conductance flickers or sub-conductance states
Triton X-100,13,9 µM,
